Structures are written as SMILES.

The series can be described thus: HILIC, Waters ACQUITY UPLC BEH Amide, 100 × 2.1 mm, 1.7 µm; A: water + 0.125% formic acid + 10 mM ammonium formate; B: 5% water + 95% acetonitrile + 0.125% formic acid + 10 mM ammonium formate; gradient (min/%B) 0/100 2/100 7.7/70 9.5/40 10.25/30 12.75/100 17/100. The following applies: stereoisomer not certain.
With `COc1cc(-c2oc3cc(O)cc(O)c3c(=O)c2OC2OC(CO)C(O)C(O)C2O)ccc1O` (stereo not drawn) [Isorhamnetin-3-glucoside], the LC retention time worked out at 4.49 min.

For `CC(CCC(=O)NCCS(=O)(=O)O)C1CCC2C3C(O)CC4CC(O)CCC4(C)C3CC(O)C12C` (stereo not drawn) [Taurocholic acid], the LC retention time was found to be 6.12 min.

With `COCC1=C(C(=O)OC(C)OC(=O)OC(C)C)N2C(=O)C(NC(=O)C(=NOC)c3csc(N)n3)C2SC1` (stereo not drawn), the LC retention time turned out to be 1.12 min.

With `NC(COP(=O)(O)O)C(=O)O` (stereo not drawn) [O-Phosphoserine], the LC retention time stood at 9.85 min.

Turning to `CNC(CC(C)C)C(=O)O` (stereo not drawn) [N-Methylleucine], the LC retention time came to 6.45 min.

In the case of `COc1cc2nc(N3CCN(C(=O)C4CCCO4)CC3)nc(N)c2cc1OC` (stereo not drawn) [Terazosin], the LC retention time came to 4.66 min.

Consider `COc1c2ccoc2cc2oc(=O)ccc12` [5-Methoxypsoralen], for which the LC retention time was found to be 1.07 min.

For `CCCc1nc(C(C)(C)O)c(C(=O)O)n1Cc1ccc(-c2ccccc2-c2nn[nH]n2)cc1` [Olmesartan], the LC retention time stood at 4.76 min.

`Cn1c(=O)c2c([nH]c(=O)n2C)n(C)c1=O` [1,3,7-Trimethyluric acid]: the LC retention time was 1.83 min.

As for `CN1CCC23CCCCC2C1Cc1ccc(O)cc13` (stereo not drawn) [Dextrorphan], the LC retention time is 3.87 min.

Regarding `CN1CCC(=C2c3ccccc3CC(=O)c3sccc32)CC1` [Ketotifen], the LC retention time worked out at 2.71 min.

Turning to `Cc1ncc(CO)c(CN)c1O` [Pyridoxamine], the LC retention time was 8.1 min.

On to `O=C(O)Cc1cccc(O)c1` [3-Hydroxyphenylacetic acid], for which the LC retention time came to 1.45 min.

Turning to `Cc1cccc(C)c1NC(=O)C1CCCCN1C` (stereo not drawn) [Mepivacaine], the LC retention time worked out at 2.96 min.

Regarding `COC1C=COC2(C)Oc3c(C)c(O)c4c(O)c(c5c(nc6cc(C)ccn65)c4c3C2=O)NC(=O)C(C)=CC=CC(C)C(O)C(C)C(O)C(C)C(OC(C)=O)C1C` (stereo not drawn) [Rifaximin], the LC retention time is 1.18 min.

As for `CN1C(=O)CN=C(c2ccccc2F)c2cc([N+](=O)[O-])ccc21` [Flunitrazepam], the LC retention time amounted to 1.05 min.

For `O=C(O)c1cc(O)ccc1O` [Gentisinic acid], the LC retention time amounted to 3.18 min.

As to `CC(OC1C(N)C(O)OC(CO)C1O)C(=O)O` (stereo not drawn) [Muramic acid], the LC retention time was found to be 8.28 min.

For `Nc1ncnc2c1ncn2C1OC(CO)C(O)C1O` (stereo not drawn) [Adenosine], the LC retention time turned out to be 4.77 min.

For `NCCCCN` [Putrescine], the LC retention time amounted to 9.3 min.

Regarding `O=C(C=CC=Cc1ccc2c(c1)OCO2)N1CCCCC1` [Piperine], the LC retention time turned out to be 1.1 min.

With `Nc1ncnc2c1ncn2C1OC2COP(=O)(O)OC2C1O` (stereo not drawn) [Adenosine 3',5'-cyclic monophosphate], the LC retention time turned out to be 7.62 min.

As for `CC12CCC(=O)C=C1CCC1C2CCC2(C)C1CCC2(O)C(=O)CO` (stereo not drawn) [Cortodoxone], the LC retention time came to 1.15 min.

Regarding `O=C1Nc2ccc(Cl)cc2C(c2ccccc2)=NC1O` (stereo not drawn) [Oxazepam], the LC retention time worked out at 1.37 min.

In the case of `Cc1ncc([N+](=O)[O-])n1CC(O)CCl` (stereo not drawn) [Ornidazole], the LC retention time came out at 1.08 min.

As to `Cc1cc(=O)oc2cc(O)ccc12` [4-Methylumbelliferone], the LC retention time turned out to be 1.22 min.

`NCC(O)c1ccccc1` (stereo not drawn) [Phenylethanolamine]: the LC retention time stood at 5.51 min.

Regarding `O=C(O)CCc1c[nH]c2ccccc12` [3-Indolepropionic acid], the LC retention time amounted to 1.28 min.

As for `CC(CN(C)C)CN1c2ccccc2CCc2ccccc21` (stereo not drawn) [Trimipramine], the LC retention time came out at 2.25 min.

Consider `NC(=O)c1cccnc1` [Nicotinamide], for which the LC retention time was 1.7 min.

In the case of `CC(=O)NC1C(O)CC(O)(C(=O)O)OC1C(O)C(O)CO` (stereo not drawn) [N-Acetylneuraminic acid], the LC retention time stood at 9.26 min.

As for `OCC1OC(OC2C(CO)OC(O)C(O)C2O)C(O)C(O)C1O` (stereo not drawn) [Maltose], the LC retention time amounted to 8.75 min.

On to `NC(CCC(=O)NC(CSSCC(NC(=O)CCC(N)C(=O)O)C(=O)NCC(=O)O)C(=O)NCC(=O)O)C(=O)O` (stereo not drawn) [Glutathione (oxidized)], for which the LC retention time turned out to be 10.2 min.

For `CC(C)CC(N)C(=O)O` (stereo not drawn) [Leucine], the LC retention time came out at 7.08 min.

Take `NC(Cc1c[nH]c2ccccc12)C(=O)O` (stereo not drawn) [Tryptophan]: the LC retention time came out at 6.92 min.

For `CCC1C(=O)OCC1Cc1cncn1C` (stereo not drawn) [Pilocarpine], the LC retention time was determined as 2.23 min.

In the case of `O=c1ccc2ccccc2[nH]1` [2-Hydroxyquinoline], the LC retention time came to 1.51 min.

On to `NCCS` [2-Aminoethanethiol], for which the LC retention time was 2.05 min.

With `CC(=O)NCCc1cnc[nH]1` [N-omega-Acetylhistamine], the LC retention time was 6 min.

As to `COc1cc(C=CC(=O)O)cc(OC)c1O` [Sinapic acid], the LC retention time is 1.41 min.

With `OCC1OC(n2cnc3c(NC4CCCC4)nc(Cl)nc32)C(O)C1O` (stereo not drawn) [2-Chloro-N6-cyclopentyladenosine], the LC retention time is 1.47 min.

Turning to `NC(=O)c1ccc[n+](C2OC(CO)C(O)C2O)c1` (stereo not drawn) [Nicotinamide riboside cation], the LC retention time stood at 7.51 min.

Turning to `O=C1OC(CO)C(O)C(O)C1O` (stereo not drawn) [Gluconolactone], the LC retention time was found to be 8.15 min.

As for `NCCCCC(N)C(=O)O` (stereo not drawn) [Lysine], the LC retention time stood at 9.54 min.

On to `COc1ccc2c(c1OC)C(=O)OC2C1c2c(cc3c(c2OC)OCO3)CCN1C` (stereo not drawn) [Noscapine], for which the LC retention time was 1.31 min.

As for `NC(Cn1cccn1)C(=O)O` (stereo not drawn) [3-(1-Pyrazolyl)-alanine], the LC retention time came out at 7.54 min.

For the molecule `O=P(O)(O)Oc1ccccc1` [Phenylphosphoric acid], the LC retention time came out at 7.05 min.

As for `CC(O)C(C)C(=O)O` (stereo not drawn) [Methyl-3-hydroxybutyric acid], the LC retention time amounted to 6.22 min.

As for `NC(Cc1ccc(O)c(O)c1)C(=O)O` (stereo not drawn) [3,4-Dihydroxyphenylalanine], the LC retention time came to 8.31 min.

For the molecule `CCN(CC)CC1CCCCN1CC(=O)N1c2ccccc2C(=O)Nc2cccnc21` (stereo not drawn) [Otenzepad], the LC retention time came out at 2.94 min.

As to `CN(C)CCC=C1c2ccccc2COc2ccccc21` [Doxepin], the LC retention time is 2.26 min.

For the molecule `COc1ccc(CN2CCN(C(c3ccc(F)cc3)c3ccc(F)cc3)CC2)c(OC)c1OC` [Lomerizine], the LC retention time was found to be 1.7 min.

As for `CC(C)=CCCC(C)O` (stereo not drawn) [6-Methyl-5-hepten-2-ol], the LC retention time amounted to 7.3 min.

Consider `CC(C)(C)NC(=O)C1CN(Cc2cccnc2)CCN1CC(O)CC(Cc1ccccc1)C(=O)NC1c2ccccc2CC1O` (stereo not drawn) [Indinavir], for which the LC retention time turned out to be 2.17 min.

In the case of `Cc1ccsc1C(=CCCN1CCCC(C(=O)O)C1)c1sccc1C` (stereo not drawn) [Tiagabine], the LC retention time was determined as 3.94 min.

On to `O=CCC(O)C(O)CO` (stereo not drawn) [2-Deoxyribose], for which the LC retention time turned out to be 1.42 min.

Regarding `COc1cc2c(cc1OC)C1C(C)c3ccc(OC)c(OC)c3CN1CC2` (stereo not drawn) [Corydaline], the LC retention time came to 1.52 min.

`OCC1OC(Oc2cc(O)cc(C=Cc3ccc(O)cc3)c2)C(O)C(O)C1O` (stereo not drawn) [trans-Piceid]: the LC retention time was 4.64 min.

These data come from the RepoRT retention time repository.
